Legend:
Assay in all cases: Test E preemergence
Format in all cases: in vivo
Conditions in all cases: scale 0 to 100
corn (Zea mays) = system: corn (Zea mays)
How it was run: (§1)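 Visual ratings from 0 (no effect) to 100 (complete control) were made versus controls 14 to 21 d after treatment. Seeds in silt loam were treated preemergence, or plants 2 to 18 cm tall in peat-based medium postemergence, with the test chemical in a surfactant-containing, non-phytotoxic solvent mixture, then held in a greenhouse.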

[1] = system: dayflower, VA (Virginia dayflower, Commelina virginica)
How it was run: as §1

[2] = system: velvetleaf (Abutilon theophrasti)
How it was run: as §1

[3] = system: pigweed, palmer (palmer pigweed, Amaranthus palmeri)
How it was run: as §1

[4] = system: Panicum, fall (fall Panicum, Panicum dichotomiflorum)
How it was run: as §1

[5] = system: beggarticks (hairy beggarticks, Bidens pilosa)
How it was run: as §1

[6] = system: nightshade (eastern black nightshade, Solanum ptycanthum)
How it was run: as §1

[7] = system: crabgrass, large (large crabgrass, Digitaria sangumnalis)
How it was run: as §1

[8] = system: crabgrass, Brazil (Brazilian crabgrass, Digitaria horizontalis)
How it was run: as §1

[9] = system: goosegrass (Eleusine indica)
How it was run: as §1

[10] = system: foxtail, giant (giant foxtail, Setaria faberii)
How it was run: as §1

[11] = system: foxtail, green (green foxtail, Setaria viridis)
How it was run: as §1

[12] = system: surinam grass (Brachiaria decumbens)
How it was run: as §1

[13] = system: nutsedge, yellow (yellow nutsedge, Cyperus esculentus)
How it was run: as §1

[14] = system: morningglory (Ipomoea coccinea)
How it was run: as §1

[15] = system: arrowleaf Sida (Sida rhombifolia)
How it was run: as §1

[16] = system: ragweed (common ragweed, Ambrosia elatior)
How it was run: as §1

[17] = system: ryegrass, Italian (Italian ryegrass, Lolium multiflorum)
How it was run: as §1

## CN1C[C@H](c2ccc(C(F)(F)F)cc2)[C@@H](C(=O)Nc2cccc(F)c2F)C1=O [Compound 623, (3S,4S)—N-(2,3-difluorophenyl)-1-methyl-2-oxo-4-[4-(trifluoromethyl)phenyl]-3-pyrrolidinecarboxamide]
Corn (Zea mays); 31 g ai/ha
  Plant response rating: Corn: 0
Corn (Zea mays); 62 g ai/ha
  Plant response rating: Corn: 60
Corn (Zea mays); 125 g ai/ha
  Plant response rating: Corn: 75
Corn (Zea mays); 250 g ai/ha
  Plant response rating: Corn: 65
[1]; 31 g ai/ha
  Plant response rating: Dayflower, VA: 0
[1]; 62 g ai/ha
  Plant response rating: Dayflower, VA: 0
[1]; 125 g ai/ha
  Plant response rating: Dayflower, VA: 20
[1]; 250 g ai/ha
  Plant response rating: Dayflower, VA: 35
[2]; 31 g ai/ha
  Plant response rating: Velvetleaf: 0
[2]; 62 g ai/ha
  Plant response rating: Velvetleaf: 50
[2]; 125 g ai/ha
  Plant response rating: Velvetleaf: 65
[2]; 250 g ai/ha
  Plant response rating: Velvetleaf: 65
[3]; 31 g ai/ha
  Plant response rating: Pigweed, Palmer: 75
[3]; 62 g ai/ha
  Plant response rating: Pigweed, Palmer: 90
[3]; 125 g ai/ha
  Plant response rating: Pigweed, Palmer: 95
[3]; 250 g ai/ha
  Plant response rating: Pigweed, Palmer: 95
[4]; 31 g ai/ha
  Plant response rating: Panicum, Fall: 90
[4]; 62 g ai/ha
  Plant response rating: Panicum, Fall: 90
[4]; 125 g ai/ha
  Plant response rating: Panicum, Fall: 90
[4]; 250 g ai/ha
  Plant response rating: Panicum, Fall: 90
[5]; 31 g ai/ha
  Plant response rating: Beggarticks: 0
[5]; 62 g ai/ha
  Plant response rating: Beggarticks: 0
[5]; 125 g ai/ha
  Plant response rating: Beggarticks: 0
[5]; 250 g ai/ha
  Plant response rating: Beggarticks: 35
[6]; 62 g ai/ha
  Plant response rating: Nightshade: 35
[6]; 125 g ai/ha
  Plant response rating: Nightshade: 70
[6]; 250 g ai/ha
  Plant response rating: Nightshade: 70
[7]; 31 g ai/ha
  Plant response rating: Crabgrass, Large: 98
[7]; 62 g ai/ha
  Plant response rating: Crabgrass, Large: 98
[7]; 125 g ai/ha
  Plant response rating: Crabgrass, Large: 98
[7]; 250 g ai/ha
  Plant response rating: Crabgrass, Large: 98
[8]; 31 g ai/ha
  Plant response rating: Crabgrass, Brazil: 98
[8]; 62 g ai/ha
  Plant response rating: Crabgrass, Brazil: 98
[8]; 125 g ai/ha
  Plant response rating: Crabgrass, Brazil: 98
[8]; 250 g ai/ha
  Plant response rating: Crabgrass, Brazil: 98
[9]; 31 g ai/ha
  Plant response rating: Goosegrass: 95
[9]; 62 g ai/ha
  Plant response rating: Goosegrass: 98
[9]; 125 g ai/ha
  Plant response rating: Goosegrass: 98
[9]; 250 g ai/ha
  Plant response rating: Goosegrass: 98
[10]; 31 g ai/ha
  Plant response rating: Foxtail, Giant: 95
[10]; 62 g ai/ha
  Plant response rating: Foxtail, Giant: 95
[10]; 125 g ai/ha
  Plant response rating: Foxtail, Giant: 95
[10]; 250 g ai/ha
  Plant response rating: Foxtail, Giant: 95
[11]; 31 g ai/ha
  Plant response rating: Foxtail, Green: 95
[11]; 62 g ai/ha
  Plant response rating: Foxtail, Green: 95
[11]; 125 g ai/ha
  Plant response rating: Foxtail, Green: 98
[11]; 250 g ai/ha
  Plant response rating: Foxtail, Green: 98
[12]; 31 g ai/ha
  Plant response rating: Surinam Grass: 75
[12]; 62 g ai/ha
  Plant response rating: Surinam Grass: 90
[12]; 125 g ai/ha
  Plant response rating: Surinam Grass: 90
[12]; 250 g ai/ha
  Plant response rating: Surinam Grass: 90
[13]; 31 g ai/ha
  Plant response rating: Nutsedge, Yellow: 0
[13]; 62 g ai/ha
  Plant response rating: Nutsedge, Yellow: 20
[13]; 125 g ai/ha
  Plant response rating: Nutsedge, Yellow: 40
[13]; 250 g ai/ha
  Plant response rating: Nutsedge, Yellow: 80
[14]; 31 g ai/ha
  Plant response rating: Morningglory: 0
[14]; 62 g ai/ha
  Plant response rating: Morningglory: 0
[14]; 125 g ai/ha
  Plant response rating: Morningglory: 0
[14]; 250 g ai/ha
  Plant response rating: Morningglory: 0
[15]; 31 g ai/ha
  Plant response rating: Arrowleaf Sida: 20
[15]; 62 g ai/ha
  Plant response rating: Arrowleaf Sida: 80
[15]; 125 g ai/ha
  Plant response rating: Arrowleaf Sida: 85
[15]; 250 g ai/ha
  Plant response rating: Arrowleaf Sida: 90
[16]; 31 g ai/ha
  Plant response rating: Ragweed: 60
[16]; 62 g ai/ha
  Plant response rating: Ragweed: 90
[16]; 125 g ai/ha
  Plant response rating: Ragweed: 95
[16]; 250 g ai/ha
  Plant response rating: Ragweed: 85
[17]; 31 g ai/ha
  Plant response rating: Ryegrass, Italian: 25
[17]; 62 g ai/ha
  Plant response rating: Ryegrass, Italian: 50
[17]; 125 g ai/ha
  Plant response rating: Ryegrass, Italian: 60
[17]; 250 g ai/ha
  Plant response rating: Ryegrass, Italian: 90

## CN1C[C@H](c2ccc(F)c(F)c2)[C@@H](C(=O)Nc2ccccc2F)C1=O [Compound 596, (3S,4S)-4-(3,4-difluorophenyl)-N-(2-fluorophenyl)-1-methyl-2-oxo-3-pyrrolidinecarboxamide]
Corn (Zea mays); 31 g ai/ha
  Plant response rating: Corn: 0
Corn (Zea mays); 62 g ai/ha
  Plant response rating: Corn: 0
Corn (Zea mays); 125 g ai/ha
  Plant response rating: Corn: 0
Corn (Zea mays); 250 g ai/ha
  Plant response rating: Corn: 0
[1]; 31 g ai/ha
  Plant response rating: Dayflower, VA: 0
[1]; 62 g ai/ha
  Plant response rating: Dayflower, VA: 40
[1]; 125 g ai/ha
  Plant response rating: Dayflower, VA: 40
[1]; 250 g ai/ha
  Plant response rating: Dayflower, VA: 35
[2]; 31 g ai/ha
  Plant response rating: Velvetleaf: 0
[2]; 62 g ai/ha
  Plant response rating: Velvetleaf: 0
[2]; 125 g ai/ha
  Plant response rating: Velvetleaf: 0
[2]; 250 g ai/ha
  Plant response rating: Velvetleaf: 35
[3]; 31 g ai/ha
  Plant response rating: Pigweed, Palmer: 0
[3]; 62 g ai/ha
  Plant response rating: Pigweed, Palmer: 0
[3]; 125 g ai/ha
  Plant response rating: Pigweed, Palmer: 0
[3]; 250 g ai/ha
  Plant response rating: Pigweed, Palmer: 40
[4]; 31 g ai/ha
  Plant response rating: Panicum, Fall: 0
[4]; 62 g ai/ha
  Plant response rating: Panicum, Fall: 0
[4]; 125 g ai/ha
  Plant response rating: Panicum, Fall: 0
[4]; 250 g ai/ha
  Plant response rating: Panicum, Fall: 90
[5]; 31 g ai/ha
  Plant response rating: Beggarticks: 0
[5]; 62 g ai/ha
  Plant response rating: Beggarticks: 0
[5]; 125 g ai/ha
  Plant response rating: Beggarticks: 0
[5]; 250 g ai/ha
  Plant response rating: Beggarticks: 0
[6]; 31 g ai/ha
  Plant response rating: Nightshade: 0
[6]; 62 g ai/ha
  Plant response rating: Nightshade: 0
[6]; 125 g ai/ha
  Plant response rating: Nightshade: 0
[6]; 250 g ai/ha
  Plant response rating: Nightshade: 60
[7]; 31 g ai/ha
  Plant response rating: Crabgrass, Large: 95
[7]; 62 g ai/ha
  Plant response rating: Crabgrass, Large: 95
[7]; 125 g ai/ha
  Plant response rating: Crabgrass, Large: 98
[7]; 250 g ai/ha
  Plant response rating: Crabgrass, Large: 98
[8]; 31 g ai/ha
  Plant response rating: Crabgrass, Brazil: 100
[8]; 62 g ai/ha
  Plant response rating: Crabgrass, Brazil: 95
[8]; 125 g ai/ha
  Plant response rating: Crabgrass, Brazil: 100
[8]; 250 g ai/ha
  Plant response rating: Crabgrass, Brazil: 100
[9]; 31 g ai/ha
  Plant response rating: Goosegrass: 5
[9]; 62 g ai/ha
  Plant response rating: Goosegrass: 5
[9]; 125 g ai/ha
  Plant response rating: Goosegrass: 25
[9]; 250 g ai/ha
  Plant response rating: Goosegrass: 65
[10]; 31 g ai/ha
  Plant response rating: Foxtail, Giant: 95
[10]; 62 g ai/ha
  Plant response rating: Foxtail, Giant: 95
[10]; 125 g ai/ha
  Plant response rating: Foxtail, Giant: 98
[10]; 250 g ai/ha
  Plant response rating: Foxtail, Giant: 98
[11]; 31 g ai/ha
  Plant response rating: Foxtail, Green: 95
[11]; 62 g ai/ha
  Plant response rating: Foxtail, Green: 95
[11]; 125 g ai/ha
  Plant response rating: Foxtail, Green: 95
[11]; 250 g ai/ha
  Plant response rating: Foxtail, Green: 95
[12]; 31 g ai/ha
  Plant response rating: Surinam Grass: 35
[12]; 62 g ai/ha
  Plant response rating: Surinam Grass: 65
[12]; 125 g ai/ha
  Plant response rating: Surinam Grass: 95
[12]; 250 g ai/ha
  Plant response rating: Surinam Grass: 95
[13]; 31 g ai/ha
  Plant response rating: Nutsedge, Yellow: 0
[13]; 62 g ai/ha
  Plant response rating: Nutsedge, Yellow: 0
[13]; 125 g ai/ha
  Plant response rating: Nutsedge, Yellow: 0
[13]; 250 g ai/ha
  Plant response rating: Nutsedge, Yellow: 0
[14]; 31 g ai/ha
  Plant response rating: Morningglory: 0
[14]; 62 g ai/ha
  Plant response rating: Morningglory: 0
[14]; 125 g ai/ha
  Plant response rating: Morningglory: 0
[14]; 250 g ai/ha
  Plant response rating: Morningglory: 0
[15]; 31 g ai/ha
  Plant response rating: Arrowleaf Sida: 35
[15]; 62 g ai/ha
  Plant response rating: Arrowleaf Sida: 30
[15]; 125 g ai/ha
  Plant response rating: Arrowleaf Sida: 30
[15]; 250 g ai/ha
  Plant response rating: Arrowleaf Sida: 50
[16]; 31 g ai/ha
  Plant response rating: Ragweed: 0
[16]; 62 g ai/ha
  Plant response rating: Ragweed: 0
[16]; 125 g ai/ha
  Plant response rating: Ragweed: 25
[16]; 250 g ai/ha
  Plant response rating: Ragweed: 50
[17]; 31 g ai/ha
  Plant response rating: Ryegrass, Italian: 0
[17]; 62 g ai/ha
  Plant response rating: Ryegrass, Italian: 0
[17]; 125 g ai/ha
  Plant response rating: Ryegrass, Italian: 35
[17]; 250 g ai/ha
  Plant response rating: Ryegrass, Italian: 50

— US12077503B2, “Substituted cyclic amides and their use as herbicides” (FMC CORPORATION, priority 2015, dated 2024)
